Source: patent publication US20100137277A1, “PYRIDINE COMPOUNDS AND THEIR USE AS P2Y12 ANTAGONISTS” (ASTRAZENECA AB, priority 2007, published 2010)

target: T1, P2Y12 receptor (Homo sapiens, UniProt Q9H244); assay: Functional inhibition of 2-Me-S-ADP induced P2Y12 signalling (35S-GTPγS binding, membranes from P2Y12 transfected CHO-cells); assay type: biochemical; details: EC80 of agonist, value given at the end of each example
T1 construct: expressed in transfected cells; host or cells: CHO cells (membranes)
Protocol: Functional inhibition of—the P2Y12 receptor can be measured by in vitro assays using cell membranes from P2Y12 transfected CHO-cells, the methodology is indicated below.
Functional inhibition of 2-Me-S-ADP induced P2Y12 signalling: 5 μg of membranes were diluted in 200 μl of 200 mM NaCl, 1 mM MgCl2, 50 mM HEPES (pH 7.4), 0.01% BSA, 30 μg/ml saponin and 10 μM GDP. To this was added an EC80 concentration of agonist (2-methyl-thio-adenosine diphosphate), the required concentration of test compound and 0.1 μCi ^35S-GTPγS. The reaction was allowed to proceed at 30° C. for 45 min. Samples were then transferred on to GF/B filters using a cell harvester and washed with wash buffer (50 mM Tris (pH 7.4), 5 mM MgCl2, 50mM NaCl). Filters were then covered with scintilant and counted for the amount of ^35S-GTPγS retained by the filter. Maximum activity was that determined in the presence of the agonist and minimum activity in the absence of the agonist following subtraction of the value determined for non-specific activity. The effect of compounds at various concentrations was plotted according to the equation
y=A+((B−A)/(1+((C/x)̂D)))
and IC50 estimated where • A is the bottom plateau of the curve i.e. the final minimum y value • B is the top of the plateau of the curve i.e. the final maximum y value • C is the x value at the middle of the curve. This represents the log EC50 value when A+B=100 • D is the slope factor. • x is the original known x values. • Y is the original known y values.
Functional inhibition of 2-Me-S-ADP induced P2Y12 signalling: 5 μg of membranes were diluted in 200 μl of 200 mM NaCl, 1 mM MgCl2, 50 mM HEPES (pH 7.4), 0.01% BSA, 30 μg/ml saponin and 10 μM GDP. To this was added an EC80 concentration of agonist (2-methyl-thio-adenosine diphosphate), the required concentration of test compound and 0.1 μCi ^35S-GTPγS. The reaction was allowed to proceed at 30° C. for 45 min. Samples were then transferred on to GF/B filters using a cell harvester and washed with wash buffer (50 mM Tris (pH 7.4), 5 mM MgCl2, 50 mM NaCl). […]

T1 sequence (Q9H244 whole entry): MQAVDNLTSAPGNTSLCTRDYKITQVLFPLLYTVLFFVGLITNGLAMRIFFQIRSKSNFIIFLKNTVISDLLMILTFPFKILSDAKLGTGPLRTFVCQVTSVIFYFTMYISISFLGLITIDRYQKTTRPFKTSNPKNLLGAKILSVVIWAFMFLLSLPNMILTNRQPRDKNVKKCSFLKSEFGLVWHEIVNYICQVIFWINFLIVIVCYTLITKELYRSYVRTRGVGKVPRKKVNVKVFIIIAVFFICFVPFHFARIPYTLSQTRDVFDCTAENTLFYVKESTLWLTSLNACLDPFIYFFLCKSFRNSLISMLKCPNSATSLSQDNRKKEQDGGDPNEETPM

Row | SMILES | IC50 [µM]
1 | CCOC(=O)c1cc(C#N)c(N2CC(C(=O)NS(=O)(=O)Cc3ccccc3F)C2)nc1OC [Example 21] | 0.015
2 | CCOC(=O)c1cc(C#N)c(N2CC(C(=O)NS(=O)(=O)Cc3ccccc3)C2)nc1COCc1ccccc1 [Example 35, Ethyl 2-[(benzyloxy)methyl]-6-{3-[(benzylsulfonyl)carbamoyl]azetidin-1-yl}-5-cyanonicotinate] | 0.089
3 | CCOC(=O)c1cc(C#N)c(N2CCC(C(=O)NS(=O)(=O)c3ccccc3)CC2)nc1OC [Example 7, Ethyl 5-cyano-2-methoxy-6-{4-[(phenylsulfonyl)carbamoyl]piperidin-1-yl}nicotinate] | 0.134
